Data as given in US8697876B2, “Compositions and methods of synthesis of pyridinolypiperidine 5-HT1F agonists” (Colucid Pharmaceuticals, Inc., priority 2010, dated 2014).

Test: Solid-state properties of Form A (hygroscopicity)
Format: physicochemical
Conditions: crystalline anhydrate

Question: For `CN1CCC(C(=O)c2cccc(NC(=O)c3c(F)cc(F)cc3F)n2)CC1.O=C(O)CCC(=O)O` [Form A, 2,4,6-Trifluoro-N-(6-(1-methylpiperidine-4-carbonyl)pyridine-2-yl)benzamide Hemisuccinate], which hygroscopicity is on record?
Answer: The hygroscopicity was “non-hygroscopic”.
